Literature values as cited in patent US20120177733A1 (priority 2005, published 2012).

Assays:
[1] = not given; remark: listed apart in the source

SMILES | absolute (oral) bioavailability | absolute oral bioavailability, wide range | solubility in water [1]
CCCCC(=O)N(Cc1ccc(-c2ccccc2-c2nnn[nH]2)cc1)[C@H](C(=O)O)C(C)C [valsartan, (S)—N-valeryl-N-{[2′-(1H-tetrazole-5-yl)-biphenyl-4-yl]-methyl}-valine] | about 25% | 10-35% | –
CCOC(=O)C1=C(COCCN)NC(C)=C(C(=O)OC)C1c1ccccc1Cl (stereo not shown) [Amlodipine besylate, 3-ethyl-5-methyl-2(2-aminoethoxymethyl)-4-(2-chlrorophenyl)-1,4-dihydro-6-methyl-3,5-pyridinedicarboxylate benzenesulphonate] | 64-90% | – | slightly soluble
